{"source": "paper PMC12203311", "about": "“Design, synthesis, in silico and in vitro evaluation of pyrrole–indole hybrids as dual tubulin and aromatase inhibitors with potent anticancer activities” (RSC Advances, 2025)", "key": {"[1]": {"test_system": "UO-31", "test": "NCI60 five-dose screen", "type": "cell-based", "settings": "Homo sapiens, UO-31, renal cancer"}, "[2]": {"test_system": "K-562", "test": "NCI60 five-dose screen", "type": "cell-based", "settings": "Homo sapiens, K562, K-562, leukemia"}, "[3]": {"test_system": "EKVX", "test": "NCI60 five-dose screen", "type": "cell-based", "settings": "Homo sapiens, NSC lung cancer"}, "[4]": {"test_system": "HCT-15", "test": "NCI60 five-dose screen", "type": "cell-based", "settings": "Homo sapiens, HCT-15, colon cancer"}, "[5]": {"test_system": "KM12", "test": "NCI60 five-dose screen", "type": "cell-based", "settings": "Homo sapiens, KM12, colon cancer"}, "[6]": {"test_system": "T47D breast cancer cell line", "test": "Cytotoxicity MTT assay, T47D", "type": "cell-based, human", "settings": "Homo sapiens, T47D; MTT, 48 hours", "how_it_was_run": "(§1)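 Both lines were handled identically: 10 000 cells per well, overnight growth, 48 h with compound at the chosen concentrations, then 0.5 mg mL^−1 MTT for 3 h. Dissolved formazan was quantified at 570 nm against vehicle-treated wells.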"}, "[7]": {"test_system": "IGROV1", "test": "NCI60 five-dose screen", "type": "cell-based", "settings": "Homo sapiens, IGROV-1; IGROV1, ovarian cancer"}, "[8]": {"test_system": "HT29", "test": "NCI60 five-dose screen", "type": "cell-based", "settings": "Homo sapiens, HT-29, HT29, colon cancer"}, "[9]": {"test_system": "SW-620", "test": "NCI60 five-dose screen", "type": "cell-based", "settings": "Homo sapiens, SW-620, colon cancer"}, "[10]": {"test_system": "SN12C", "test": "NCI60 five-dose screen", "type": "cell-based", "settings": "Homo sapiens, renal cancer"}, "[11]": {"test_system": "OVCAR-8", "test": "NCI60 five-dose screen", "type": "cell-based", "settings": "Homo sapiens, OVCAR-8, ovarian cancer"}, "[12]": {"test_system": "SF-295", "test": "NCI60 five-dose screen", "type": "cell-based", "settings": "Homo sapiens, SF-295, CNS cancer"}, "[13]": {"test_system": "U251", "test": "NCI60 five-dose screen", "type": "cell-based", "settings": "Homo sapiens, U-251, U251, CNS cancer"}, "[14]": {"test_system": "RXF 393", "test": "NCI60 five-dose screen", "type": "cell-based", "settings": "Homo sapiens, RXF 393, renal cancer"}, "[15]": {"test_system": "NCI-H322M", "test": "NCI60 five-dose screen", "type": "cell-based", "settings": "Homo sapiens, NSC lung cancer"}, "[16]": {"test_system": "HCT-116", "test": "NCI60 five-dose screen", "type": "cell-based", "settings": "Homo sapiens, HCT-116, colon cancer"}, "[17]": {"test_system": "CCRF-CEM", "test": "NCI60 five-dose screen", "type": "cell-based", "settings": "Homo sapiens, leukemia"}, "[18]": {"test_system": "MCF7", "test": "NCI60 five-dose screen", "type": "cell-based", "settings": "Homo sapiens, MCF7, breast cancer"}, "[19]": {"test_system": "SK-MEL-28", "test": "NCI60 five-dose screen", "type": "cell-based", "settings": "Homo sapiens, SK-MEL-28, melanoma"}, "[20]": {"test_system": "NCI/ADR-RES", "test": "NCI60 five-dose screen", "type": "cell-based, human", "settings": "Homo sapiens, ovarian cancer"}, "[21]": {"test_system": "T-47D", "test": "NCI60 five-dose screen", "type": "cell-based", "settings": "Homo sapiens, T47D, breast cancer"}, "[22]": {"test_system": "HOP-92", "test": "NCI60 five-dose screen", "type": "cell-based", "settings": "Homo sapiens, HOP-92, NSC lung cancer"}, "[23]": {"test_system": "MOLT-4", "test": "NCI60 five-dose screen", "type": "cell-based", "settings": "Homo sapiens, MOLT-4, leukemia"}, "[24]": {"test_system": "NCI-H460", "test": "NCI60 five-dose screen", "type": "cell-based", "settings": "Homo sapiens, NCI-H460, NSC lung cancer"}, "[25]": {"test": "Cytotoxicity MTT assay, L929", "type": "cell-based, mouse", "settings": "mouse, L929 fibroblast cells; MTT, 48 hours", "how_it_was_run": "as §1"}, "[26]": {"test_system": "L929 normal mouse fibroblast cell line", "test": "Cytotoxicity MTT assay, L929", "type": "cell-based", "settings": "IC50 (L929)/IC50 (T47D)", "how_it_was_run": "as §1"}, "[27]": {"test_system": "NCI-H522", "test": "NCI60 five-dose screen", "type": "cell-based", "settings": "Homo sapiens, NCI-H522, NSC lung cancer"}, "[28]": {"test_system": "OVCAR-4", "test": "NCI60 five-dose screen", "type": "cell-based", "settings": "Homo sapiens, OVCAR-4, ovarian cancer"}, "[29]": {"test_system": "UACC-257", "test": "NCI60 five-dose screen", "type": "cell-based", "settings": "Homo sapiens, UACC-257, melanoma"}, "[30]": {"test_system": "SF-539", "test": "NCI60 five-dose screen", "type": "cell-based", "settings": "Homo sapiens, SF-539, CNS cancer"}, "[31]": {"test_system": "SK-MEL-2", "test": "NCI60 five-dose screen", "type": "cell-based", "settings": "Homo sapiens, SK-MEL-2, melanoma"}, "[32]": {"test_system": "PC-3", "test": "NCI60 five-dose screen", "type": "cell-based", "settings": "Homo sapiens, PC-3, prostate cancer"}, "[33]": {"settings": "read-out: LC50 (the source's name)"}}, "data": [{"molecule": "CCOC(=O)c1cc(/C=N/NC(=O)c2[nH]c3ccc(Br)cc3c2-c2ccccc2)c[nH]1", "note": "[Derivative 3v, Ethyl (E)-4-((2-(5-bromo-3-phenyl-1H-indole-2-carbonyl)hydrazono)methyl)-1H-pyrrole-2-carboxylate]", "values": [{"measurement": "GI50", "setting": "[1]", "value": 4.21, "unit": "µM"}, {"measurement": "CC50", "setting": "[1]; [33]", "value": 61.9, "unit": "µM"}, {"measurement": "GI50", "setting": "[2]", "value": 4.59, "unit": "µM"}, {"measurement": "CC50", "setting": "[2]; [33]", "value": "> 100", "unit": "µM"}, {"measurement": "GI50", "setting": "[3]", "value": 7.14, "unit": "µM"}, {"measurement": "CC50", "setting": "[3]; [33]", "value": 60.7, "unit": "µM"}, {"measurement": "GI50", "setting": "[4]", "value": 3.21, "unit": "µM"}, {"measurement": "CC50", "setting": "[4]; [33]", "value": 35.7, "unit": "µM"}, {"measurement": "GI50", "setting": "[5]", "value": 3.37, "unit": "µM"}, {"measurement": "CC50", "setting": "[5]; [33]", "value": 35.5, "unit": "µM"}, {"measurement": "IC50", "setting": "[6]", "value": "24.9 ± 8.4", "unit": "µM"}, {"measurement": "GI50", "setting": "[7]", "value": 3.75, "unit": "µM"}, {"measurement": "GI50", "setting": "[8]", "value": 3.33, "unit": "µM"}, {"measurement": "CC50", "setting": "[8]; [33]", "value": 35.3, "unit": "µM"}, {"measurement": "GI50", "setting": "[9]", "value": 4.41, "unit": "µM"}, {"measurement": "CC50", "setting": "[9]; [33]", "value": 40.1, "unit": "µM"}, {"measurement": "GI50", "setting": "[10]", "value": 3.63, "unit": "µM"}, {"measurement": "CC50", "setting": "[10]; [33]", "value": 38.1, "unit": "µM"}, {"measurement": "GI50", "setting": "[11]", "value": 3.65, "unit": "µM"}, {"measurement": "CC50", "setting": "[11]; [33]", "value": 38.5, "unit": "µM"}, {"measurement": "GI50", "setting": "[12]", "value": 3.04, "unit": "µM"}, {"measurement": "CC50", "setting": "[12]; [33]", "value": 37.2, "unit": "µM"}, {"measurement": "GI50", "setting": "[13]", "value": 3.8, "unit": "µM"}, {"measurement": "CC50", "setting": "[13]; [33]", "value": 37.6, "unit": "µM"}, {"measurement": "GI50", "setting": "[14]", "value": 2.56, "unit": "µM"}, {"measurement": "CC50", "setting": "[14]; [33]", "value": 33, "unit": "µM"}, {"measurement": "GI50", "setting": "[15]", "value": 4.42, "unit": "µM"}, {"measurement": "CC50", "setting": "[15]; [33]", "value": 76.1, "unit": "µM"}, {"measurement": "GI50", "setting": "[16]", "value": 3.42, "unit": "µM"}, {"measurement": "CC50", "setting": "[16]; [33]", "value": 50.5, "unit": "µM"}, {"measurement": "GI50", "setting": "[17]", "value": 3.7, "unit": "µM"}, {"measurement": "CC50", "setting": "[17]; [33]", "value": "> 100", "unit": "µM"}, {"measurement": "GI50", "setting": "[18]", "value": 3.03, "unit": "µM"}, {"measurement": "CC50", "setting": "[18]; [33]", "value": 40.3, "unit": "µM"}, {"measurement": "GI50", "setting": "[19]", "value": 4.73, "unit": "µM"}, {"measurement": "CC50", "setting": "[19]; [33]", "value": 48.5, "unit": "µM"}, {"measurement": "GI50", "setting": "[20]", "value": 2.23, "unit": "µM"}, {"measurement": "CC50", "setting": "[20]; [33]", "value": 21.2, "unit": "µM"}, {"measurement": "GI50", "setting": "[21]", "value": 5.88, "unit": "µM"}, {"measurement": "CC50", "setting": "[21]; [33]", "value": "> 100", "unit": "µM"}, {"measurement": "GI50", "setting": "[22]", "value": 7.99, "unit": "µM"}, {"measurement": "CC50", "setting": "[22]; [33]", "value": "> 100", "unit": "µM"}, {"measurement": "GI50", "setting": "[23]", "value": 3.91, "unit": "µM"}, {"measurement": "CC50", "setting": "[23]; [33]", "value": "> 100", "unit": "µM"}, {"measurement": "GI50", "setting": "[24]", "value": 3.49, "unit": "µM"}, {"measurement": "CC50", "setting": "[24]; [33]", "value": 34.3, "unit": "µM"}, {"measurement": "IC50 at 48 h", "setting": "[25]", "value": "90.1 ± 40.3", "unit": "µM"}, {"measurement": "Selectivity index (SI)", "setting": "[26]", "value": 3.62}, {"measurement": "GI50", "setting": "[27]", "value": 2.41, "unit": "µM"}, {"measurement": "CC50", "setting": "[27]; [33]", "value": 61.2, "unit": "µM"}, {"measurement": "GI50", "setting": "[28]", "value": 9, "unit": "µM"}, {"measurement": "CC50", "setting": "[28]; [33]", "value": 52.8, "unit": "µM"}, {"measurement": "GI50", "setting": "[29]", "value": 11.7, "unit": "µM"}, {"measurement": "CC50", "setting": "[29]; [33]", "value": 77.8, "unit": "µM"}, {"measurement": "GI50", "setting": "[30]", "value": 2.02, "unit": "µM"}, {"measurement": "CC50", "setting": "[30]; [33]", "value": 13.5, "unit": "µM"}, {"measurement": "GI50", "setting": "[31]", "value": 4.37, "unit": "µM"}, {"measurement": "CC50", "setting": "[31]; [33]", "value": 47.3, "unit": "µM"}, {"measurement": "GI50", "setting": "[32]", "value": 4.07, "unit": "µM"}, {"measurement": "CC50", "setting": "[32]; [33]", "value": "> 100", "unit": "µM"}]}]}
